Results reported in the NIST ThermoML archive (doi:10.1016/j.jct.2012.07.024).

Columns and labels:
[1] = 101.33 kPa, Liquid; for viscosity: Concentric cylinders viscometry; for mass density: Vibrating tube method
[2] = refractive index (Na D-line) (dimensionless); settings: 101.33 kPa, Liquid, Standard Abbe refractometry

CC(O)CO (stereo not given) [1,2-propanediol]
Settings | mass density, [1] [kg/m3] | refractive index, [2] | viscosity, [1] [mPa·s]
288.15 K | 1039.87 | 1.43425 | 82.86
293.15 K | 1036.25 | 1.4326 | 59.84
298.15 K | 1032.59 | 1.43093 | 44.19
303.15 K | 1028.88 | 1.42927 | 33.29
308.15 K | 1025.14 | 1.4276 | 25.54
313.15 K | 1021.35 | 1.4259 | 19.92
318.15 K | 1017.52 | 1.42422 | 15.79
323.15 K | 1013.66 | 1.42252 | 12.76
328.15 K | 1009.75 | 1.42078 | 10.35
333.15 K | 1005.79 | 1.41909 | 8.586

OCCCO [propan-1,3-diol]
Settings | mass density, [1] [kg/m3] | refractive index, [2] | viscosity, [1] [mPa·s]
288.15 K | 1055.96 | 1.44073 | 68.06
293.15 K | 1052.87 | 1.43932 | 52.75
298.15 K | 1049.76 | 1.43792 | 41.97
303.15 K | 1046.64 | 1.43654 | 33.56
308.15 K | 1043.5 | 1.43513 | 27.15
313.15 K | 1040.35 | 1.43375 | 22.22
318.15 K | 1037.18 | 1.43232 | 18.35
323.15 K | 1033.98 | 1.43087 | 15.29
328.15 K | 1030.77 | 1.42945 | 12.84
333.15 K | 1027.53 | 1.42803 | 10.96
